Laboratory results: article PMC3905854 (Nucleic Acids Research, 2013)

Tests used:
DnaA (wtDnaA) = target: T1, DnaA (wtDnaA) (Escherichia coli, UniProt P03004, H202Y); test: ATP binding assay
T1 sequence (P03004 1-467 H202Y): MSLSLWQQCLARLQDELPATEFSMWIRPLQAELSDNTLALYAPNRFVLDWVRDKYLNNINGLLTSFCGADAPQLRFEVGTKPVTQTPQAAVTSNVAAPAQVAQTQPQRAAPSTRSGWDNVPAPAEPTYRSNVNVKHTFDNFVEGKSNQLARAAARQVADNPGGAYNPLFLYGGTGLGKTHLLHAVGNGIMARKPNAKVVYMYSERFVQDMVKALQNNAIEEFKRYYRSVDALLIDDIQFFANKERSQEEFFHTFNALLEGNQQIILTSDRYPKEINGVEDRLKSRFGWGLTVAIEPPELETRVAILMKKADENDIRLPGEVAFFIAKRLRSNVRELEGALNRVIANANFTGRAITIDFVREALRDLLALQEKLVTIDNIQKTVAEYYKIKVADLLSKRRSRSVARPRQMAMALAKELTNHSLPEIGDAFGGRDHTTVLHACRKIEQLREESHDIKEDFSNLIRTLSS

Hda (E. coli) = Hda (E. coli) (UniProt P69931); test: SEC

Kd (DnaA (wtDnaA)) [nM]	stoichiometry N (Hda (E. coli))	Molecule
360		Nc1ncnc2c1ncn2[C@@H]1O[C@H](COP(=O)(O)OP(=O)(O)OP(=O)(O)O)[C@@H](O)[C@H]1O [ATP]
	2	Hda (from UniProt P69931 1-233) (natural protein)
